Test results as given in patent US11648254B2 (Kumquat Biosciences Inc., priority 2021, dated 2023).
Like-named read-outs stand apart in the source and are kept apart here.

Legend:
SOS1 = SOS1 (Homo sapiens (Human), UniProt Q07889); assay: Ras-SOS interaction assay (HTRF); assay type: biochemical
[1] = test system: NCI-H1975 cells (EGFR T790M L858R); assay: EGFR-SOS cellular inhibition assay (CellTiter-Glo, 3D); assay type: cell-based; conditions: Homo sapiens
[2] = test system: MIA PaCa-2 cells (K-Ras G12C); assay: Ras-SOS cellular growth inhibition assay (CellTiter-Glo, 3D); assay type: cell-based; conditions: Homo sapiens
Summary of the method: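 Growth read by CellTiter-Glo luminescence about 5 days after dosing with 3-fold dilutions (9 points), added one day post-seeding. Cells: MIA PaCa-2, 3D culture on ultra-low-attachment surface, medium DMEM/Ham's F12 plus 10% FCS and 2.5% horse serum; IC50 by four-parameter fit.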

[3] = K-RasG13D utilized, read-out: IC50 inhibition of SOS
[4] = K-RasG13D, read-out: IC50 value against SOS1
[5] = 120 h, NCI-H1975, 3D proliferation, about 5 days, read-out: Bio-Cell-Prolif-3D (H1975 IC50)
[6] = NCI-H1975, EGFR T790M L858R, read-out: IC50 in inhibiting growth of NCI-H1975 cell line
[7] = MIA PaCa-2, 120 h, MIA PaCa-2, 3D proliferation, about 5 days, read-out: Bio-Cell-Prolif-3D (MiaPaca2 IC50)
[8] = MIA PaCa-2, MIA PaCa-2, read-out: IC50 in inhibiting MIA PaCa-2 cell growth

Sequence of SOS1 (Q07889 564-1049): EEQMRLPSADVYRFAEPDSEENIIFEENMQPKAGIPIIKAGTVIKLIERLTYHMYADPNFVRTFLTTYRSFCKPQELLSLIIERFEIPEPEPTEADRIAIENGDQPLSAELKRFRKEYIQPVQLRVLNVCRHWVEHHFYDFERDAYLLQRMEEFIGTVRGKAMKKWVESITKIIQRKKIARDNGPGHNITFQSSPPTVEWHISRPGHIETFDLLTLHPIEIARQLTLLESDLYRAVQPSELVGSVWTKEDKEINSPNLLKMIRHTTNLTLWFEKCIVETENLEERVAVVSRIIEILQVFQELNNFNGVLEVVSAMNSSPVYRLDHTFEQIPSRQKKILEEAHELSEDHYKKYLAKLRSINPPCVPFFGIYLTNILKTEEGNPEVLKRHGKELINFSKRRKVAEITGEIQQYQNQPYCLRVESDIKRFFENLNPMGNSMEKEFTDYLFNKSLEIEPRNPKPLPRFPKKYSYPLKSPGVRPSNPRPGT

Compound	IC50 (SOS1; [3])	IC50 (SOS1; [4])	IC50 [1, 5]	IC50 [1, 6]	IC50 [2, 7]	IC50 [2, 8]
Cc1nc(N[C@H](C)c2cccc(C(F)(F)F)c2C)c2cc(C3CCS(=O)(=O)CC3)c(Cl)nc2n1 [Compound 388, (R)-4-(7-chloro-2-methyl-4-((1-(2-methyl-3-(trifluoromethyl)phenyl)ethyl)amino)pyrido[2,3-d]pyrimidin-6-yl)tetrahydro-2H-thiopyran 1,1-dioxide]	< 0.1 µM	< 0.05 µM	≤ 1 µM	< 0.5 µM	≤ 1 µM	< 0.5 µM
Cc1nc(N[C@H](C)c2cccc(C(F)F)c2F)c2cc(C3CCS(=O)(=O)CC3)c(Cl)nc2n1 [Compound 389, (R)-4-(7-chloro-4-((1-(3-(difluoromethyl)-2-fluorophenyl)ethyl)amino)-2-methylpyrido[2,3-d]pyrimidin-6-yl)tetrahydro-2H-thiopyran 1,1-dioxide]	< 0.1 µM	< 0.05 µM	≤ 1 µM	< 0.5 µM	≤ 1 µM	< 0.5 µM
Cc1nc(N[C@H](C)c2cccc(C(F)(F)F)c2C)c2cc(N3CCS(=O)(=O)CC3)c(Cl)nc2n1 [Compound 390, (R)-4-(7-chloro-2-methyl-4-((1-(2-methyl-3-(trifluoromethyl)phenyl)ethyl)amino)pyrido[2,3-d]pyrimidin-6-yl) thiomorpholine 1,1-dioxide]	< 0.1 µM	< 0.05 µM	≤ 1 µM	< 0.5 µM	≤ 1 µM	< 0.5 µM
Cc1nc(N[C@H](C)c2cccc(C(F)(F)F)c2F)c2cc(C3CCN(C(C)C)CC3)c(Cl)nc2n1 [Compound 391, (R)-7-chloro-N-(1-(2-fluoro-3-(trifluoromethyl)phenyl)ethyl)-6-(1-isopropylpiperidin-4-yl)-2-methylpyrido[2,3-d] pyrimidin-4-amine]	< 0.1 µM	< 0.05 µM	≤ 1 µM	< 0.5 µM	≤ 1 µM	< 0.5 µM
Cc1nc(N[C@H](C)c2cccc(C(F)(F)F)c2C)c2cc(C3CCN(C(C)C)CC3)c(Cl)nc2n1 [Compound 392, (R)-7-chloro-6-(1-isopropylpiperidin-4-yl)-2-methyl-N-(1-(2-methyl-3-(trifluoromethyl)phenyl)ethyl)pyrido [2,3-d]pyrimidin-4-amine]	< 0.1 µM	< 0.05 µM	≤ 1 µM	< 0.5 µM	≤ 1 µM	< 0.5 µM
C[C@@H](Nc1ncnc2nc(Cl)c(C3CCS(=O)(=O)CC3)cc12)c1cccc(C(F)F)c1F [Compound 393, (R)-4-(7-chloro-4-((1-(3-(difluoromethyl)-2-fluorophenyl)ethyl)amino)pyrido [2,3-d]pyrimidin-6-yl)tetrahydro-2H-thiopyran 1,1-dioxide]	< 0.1 µM	< 0.05 µM	≤ 1 µM	< 0.5 µM	≤ 1 µM	< 0.5 µM
Cc1c([C@@H](C)Nc2ncnc3nc(Cl)c(N4CCN(C(C)C)CC4)cc23)cccc1C(F)(F)F [Compound 395, (R)-7-chloro-6-(4-isopropylpiperazin-1-yl)-N-(1-(2-methyl-3-(trifluoromethyl)phenyl)ethyl)pyrido [2,3-d]pyrimidin-4-amine]	< 0.1 µM	< 0.05 µM	≤ 1 µM	< 0.5 µM	≤ 1 µM	< 0.5 µM
Cc1nc(N[C@H](C)c2cccc(C(F)F)c2F)c2cc(C3(C#N)CC3)c(N3CCOCC3)nc2n1 [Compound 396, (R)-1-(4-((1-(3-(difluoromethyl)-2-fluorophenyl)ethyl)amino)-2-methyl-7-morpholinopyrido[2,3-d]pyrimidin-6-yl)cyclopropane-1-carbonitrile]	< 0.1 µM	< 0.05 µM	≤ 1 µM		≤ 1 µM	< 0.5 µM
CCN1CCC(c2cc3c(N[C@H](C)c4cccc(C(F)F)c4F)nc(C)nc3nc2OCCN(C)C)CC1 [Compound 399, (R)-N-(1-(3-(difluoromethyl)-2-fluorophenyl)ethyl)-7-(2-(dimethylamino)ethoxy)-6-(1-ethylpiperidin-4-yl)-2-methylpyrido[2,3-d] pyrimidin-4-amine]	< 0.1 µM	< 0.05 µM	≤ 1 µM		1 to 10 µM	
Cc1nc(N[C@H](C)c2cccc(C(F)F)c2F)c2cc(C3CCS(=O)(=O)CC3)c(NC3COC3)nc2n1 [Compound 401, (R)-4-(4-((1-(3-(difluoromethyl)-2-fluorophenyl)ethyl)amino)-2-methyl-7-(oxetan-3-ylamino)pyrido[2,3-d]pyrimidin-6-yl)tetrahydro-2H-thiopyran 1,1-dioxide]	< 0.1 µM	< 0.05 µM	≤ 1 µM		1 to 10 µM	
CNCCOc1nc2nc(C)nc(N[C@H](C)c3cccc(C(F)F)c3F)c2cc1C1CCN(C(C)C)CC1 [Compound 404, (R)-N-(1-(3-(difluoromethyl)-2-fluorophenyl)ethyl)-6-(1-isopropylpiperidin-4-yl)-2-methyl-7-(2-(methylamino)ethoxy)pyrido[2,3-d] pyrimidin-4-amine]	< 0.1 µM	< 0.05 µM	1 to 10 µM		1 to 10 µM	
Cc1nc(N[C@H](C)c2cccc(C(F)F)c2F)c2cc(C3CCN(C(C)C)CC3)c(NC3COC3)nc2n1 [Compound 407, (R)-N4-(1-(3-(difluoromethyl)-2-fluorophenyl)ethyl)-6-(1-isopropylpiperidin-4-yl)-2-methyl-N7-(oxetan-3-yl)pyrido [2,3-d]pyrimidine-4,7-diamine]	< 0.1 µM	< 0.05 µM	1 to 10 µM		1 to 10 µM	

Other lines, results leading:

IC50 (SOS1; [3])	IC50 (SOS1; [4])	IC50 [1, 5]	IC50 [1, 6]	IC50 [2, 7]	IC50 [2, 8]	Compound
< 0.1 µM	< 0.05 µM	≤ 1 µM	< 0.5 µM	≤ 1 µM	< 0.5 µM	CC(C)N1CCN(c2cc3c(N[C@H](C)c4cccc(C(F)(F)F)c4F)ncnc3nc2Cl)CC1 [Compound 394, (R)-7-chloro-N-(1-(2-fluoro-3-(trifluoromethyl)phenyl)ethyl)-6-(4-isopropylpiperazin-1-yl)pyrido[2,3-d] pyrimidin-4-amine]
< 0.1 µM	< 0.05 µM	≤ 1 µM	< 0.5 µM	≤ 1 µM	< 0.5 µM	Cc1nc(N[C@H](C)c2cccc(C(F)F)c2F)c2cc(N3CCN(C)CC3)c(OCC3COC3)nc2n1 [Compound 397, (R)-N-(1-(3-(difluoromethyl)-2-fluorophenyl)ethyl)-2-methyl-6-(4-methylpiperazin-1-yl)-7-(oxetan-3-ylmethoxy)pyrido[2,3-d]pyrimidin-4-amine]
< 0.1 µM	< 0.05 µM	≤ 1 µM	< 0.5 µM	≤ 1 µM	< 0.5 µM	CNCCOc1nc2nc(C)nc(N[C@H](C)c3cccc(C(F)F)c3F)c2cc1N1CCN(C(C)C)CC1 [Compound 406, (R)-N-(1-(3-(difluoromethyl)-2-fluorophenyl)ethyl)-6-(4-isopropylpiperazin-1-yl)-2-methyl-7-(2-(methylamino)ethoxy)pyrido[2,3-d] pyrimidin-4-amine]
< 0.1 µM	< 0.05 µM	≤ 1 µM	< 0.5 µM	≤ 1 µM	< 0.5 µM	Cc1nc(N[C@H](C)c2cccc(C(F)F)c2F)c2cc(C3CCN(C(C)C)CC3)c(OC3CN(C)C3)nc2n1 [Compound 410, (R)-N-(1-(3-(difluoromethyl)-2-fluorophenyl)ethyl)-6-(1-isopropylpiperidin-4-yl)-2-methyl-7-((1-methylazetidin-3-yl)oxy)pyrido[2,3-d]pyrimidin-4-amine]
< 0.1 µM	< 0.05 µM	≤ 1 µM	< 0.5 µM	≤ 1 µM	< 0.5 µM	Cc1nc(N[C@H](C)c2cccc(C(F)F)c2F)c2cc(N3CCN(C)CC3)c(OC3COC3)nc2n1 [Compound 411, (R)-N-(1-(3-(difluoromethyl)-2-fluorophenyl)ethyl)-2-methyl-6-(4-methylpiperazin-1-yl)-7-(oxetan-3-yloxy)pyrido[2,3-d]pyrimidin-4-amine]
< 0.1 µM	< 0.05 µM	≤ 1 µM	< 0.5 µM	≤ 1 µM	< 0.5 µM	COc1nc2ncnc(N[C@H](C)c3cccc(C(F)F)c3F)c2cc1C1CCN(C)CC1 [Compound 412, (R)-N-(1-(3-(difluoromethyl)-2-fluorophenyl)ethyl)-7-methoxy-6-(1-methylpiperidin-4-yl)pyrido[2,3-d] pyrimidin-4-amine]
< 0.1 µM	< 0.05 µM	≤ 1 µM	< 0.5 µM	≤ 1 µM	< 0.5 µM	CC(C)N1CCN(c2cc3c(N[C@H](C)c4cccc(C(F)F)c4F)ncnc3nc2OC2COC2)CC1 [Compound 413, (R)-N-(1-(3-(difluoromethyl)-2-fluorophenyl)ethyl)-6-(4-isopropylpiperazin-1-yl)-7-(oxetan-3-yloxy)pyrido[2,3-d] pyrimidin-4-amine]
< 0.1 µM	< 0.05 µM	≤ 1 µM	< 0.5 µM	≤ 1 µM		CC(C)N1CCN(c2cc3c(N[C@H](C)c4cccc(C(F)F)c4F)ncnc3nc2OC2CN(C)C2)CC1 [Compound 414, (R)-N-(1-(3-(difluoromethyl)-2-fluorophenyl)ethyl)-6-(4-isopropylpiperazin-1-yl)-7-((1-methylazetidin-3-yl)oxy)pyrido [2,3-d]pyrimidin-4-amine]
